For data set [1], the system named is NMRI mice. Description: Formalin paw test. The data set is classed as in vivo. Conditions: 100 mg/kg p.o., 120 minutes before the test; FIG. 6. Here is the method: The method, which detects analgesic/anti-inflammatory activity, follows that described by Wheeler-Aceto et al (Wheeler-Aceto et al., 1991). NMRI mice were given an intraplantar injection of 5% formalin (25 μl) into the posterior left paw. […] The time spent licking was counted for 15 minutes, beginning 15 minutes after injection of formalin. 10 mice were studied per group. The test was performed blind. S-Licarbazepine and R-licarbazepine were tested at the dose of 100 mg/kg p.o., administered 120 minutes before the test (i.e. […]), and compared with a vehicle control group in each experiment.

Another data set relates to P-gp or MRP. Conditions: cited from earlier work; for category of P-gp or MRP substrates: AEDs listed in the discussion.
Data set [2] relates to patients with drug-resistant epilepsy. Conditions: six months after initiation of therapy; 120 patients who had tried at least 3-4 other AEDs; cited from earlier work.
Data set [3] in a line: Plasma pharmacokinetics after oral administration to CD-1 mice. It counts as in vivo. The source says:
(§1) The following pharmacokinetic parameters for S-licarbazepine and R-licarbazepine were derived by non-compartmental analysis from the concentration versus time profiles: maximum observed plasma drug concentration (Cmax), time at which the Cmax occurred (tmax), area under the plasma concentration versus time curve (AUC) from time zero to the last sampling time at which concentrations were at or above the limit of quantification (AUC0-t) and AUC from time zero to infinity (AUC0-∞), elimination half-life (t1/2) and mean residence time (MRT). The pharmacokinetic parameters were determined using WinNonlin (version 4.0). Summary statistics of all data for each treatment and scheduled sampling times were reported, as appropriate, using the geometric mean, arithmetic mean, standard deviation (SD), coefficient of variation (CV), median, minimum and maximum. The statistical package SAS Version 8.2 or higher (SAS Institute, Cary, USA) was used in all computations when considered appropriate.

In another data set the target is P-glycoprotein (P-gp) (Mus musculus, UniProt P21447). Description: Brain/plasma ratio in mice pre-treated with the P-gp inhibitor verapamil. Conditions: for substrate for P-gp: concluded from verapamil pre-treatment; for effect of verapamil on brain/plasma ratio: verapamil 20 mg/kg 30 min before 100 mg/kg intraperitoneally, FIG. 2.
Sequence of P-glycoprotein (P-gp) (P21447 whole entry): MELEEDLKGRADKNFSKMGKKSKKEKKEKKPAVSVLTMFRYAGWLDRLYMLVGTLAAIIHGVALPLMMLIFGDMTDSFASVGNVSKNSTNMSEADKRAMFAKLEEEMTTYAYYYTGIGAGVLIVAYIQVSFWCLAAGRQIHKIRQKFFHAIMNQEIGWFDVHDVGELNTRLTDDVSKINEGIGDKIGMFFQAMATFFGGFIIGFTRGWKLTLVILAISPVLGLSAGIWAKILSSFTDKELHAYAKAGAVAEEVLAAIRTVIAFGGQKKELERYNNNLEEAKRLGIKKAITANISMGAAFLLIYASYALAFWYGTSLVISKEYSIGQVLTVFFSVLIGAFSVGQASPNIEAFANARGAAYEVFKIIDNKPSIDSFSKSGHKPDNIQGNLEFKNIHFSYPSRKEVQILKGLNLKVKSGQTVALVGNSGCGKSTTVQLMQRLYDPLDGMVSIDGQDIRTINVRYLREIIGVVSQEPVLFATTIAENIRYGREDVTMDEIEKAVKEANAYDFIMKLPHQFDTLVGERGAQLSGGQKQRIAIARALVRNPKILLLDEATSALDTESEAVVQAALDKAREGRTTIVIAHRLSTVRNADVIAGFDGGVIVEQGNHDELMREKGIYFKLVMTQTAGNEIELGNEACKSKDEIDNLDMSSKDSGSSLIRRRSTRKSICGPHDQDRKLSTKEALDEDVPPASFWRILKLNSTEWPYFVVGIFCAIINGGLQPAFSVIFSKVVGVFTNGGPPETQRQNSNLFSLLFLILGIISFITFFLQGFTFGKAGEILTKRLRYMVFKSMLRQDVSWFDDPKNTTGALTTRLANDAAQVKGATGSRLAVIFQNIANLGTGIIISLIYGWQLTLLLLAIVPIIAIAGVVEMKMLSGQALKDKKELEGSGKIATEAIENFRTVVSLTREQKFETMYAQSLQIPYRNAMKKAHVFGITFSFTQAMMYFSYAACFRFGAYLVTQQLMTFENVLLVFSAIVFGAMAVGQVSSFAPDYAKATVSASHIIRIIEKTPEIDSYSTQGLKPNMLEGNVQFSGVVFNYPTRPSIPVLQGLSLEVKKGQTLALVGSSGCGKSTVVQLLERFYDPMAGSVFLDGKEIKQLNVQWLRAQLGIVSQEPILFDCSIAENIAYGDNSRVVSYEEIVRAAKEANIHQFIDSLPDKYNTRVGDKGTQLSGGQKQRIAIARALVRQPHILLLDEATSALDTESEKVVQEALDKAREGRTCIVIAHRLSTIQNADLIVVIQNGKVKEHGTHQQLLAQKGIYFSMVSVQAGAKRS
A short description of data set [4]: Brain pharmacokinetics (brain access) after oral administration to CD-1 mice. The data set is classed as in vivo. Conditions: for presence of the opposite enantiomer in brain: analyte found after administration of the other enantiomer.
Excerpt: as §1

The test system of data set [5] is NMRI mice. Put plainly: Corneal kindling procedure (acquisition of kindling). The data set is classed as in vivo. On the procedure:
Vehicle (30% DMSO in distilled water) or the compounds dissolved in 30% DMSO were administered intraperitoneally twice daily. NMRI mice were stimulated twice daily (interstimulation interval 6-7 h) on twelve consecutive days. The electrostimulations with current intensities of 3 mA and duration of 3 s (pulse frequency 50 Hz) were applied via corneally placed saline-soaked copper electrodes. A stimulator was used to deliver a constant current regardless of the impedance of the test object. Seizure severity was ranked according to a modified system of Racine (Racine, 1972): 1, mild facial clonus and eye blinking; 2, severe facial clonus, head nodding, chewing; 3, unilateral or alternating forelimb clonus; 4, bilateral forelimb clonus with rearing […]; 5, bilateral forelimb clonus with rearing and falling; 6, tonic fore- and/or hindlimb extension.

In data set [6] the test system is Multiple Resistant Proteins (MRP). Put plainly: Brain/plasma ratio in mice pre-treated with the MRP inhibitor probenecid. Conditions: for substrate for MRP: concluded from probenecid pre-treatment.
Description: (§2) CD-1 mice weighing 30-35 g were maintained under controlled environmental conditions (23-24° C.) for at least 5 days before the experiment. […] In the second series of experiments, mice pre-treated with vehicle, verapamil (20 mg/kg) or probenecid (100 mg/kg) were given 30 min later intraperitoneally S-licarbazepine or R-licarbazepine (100 mg/kg). […] After collection of blood, plasma was obtained by centrifugation. Brain samples were homogenised in phosphate buffer (pH 5; 4 mL/g) followed by centrifugation and collection of the supernatant. Plasma and the tissue supernatant were stored frozen until analysis. The assay of S-licarbazepine and R-licarbazepine was performed using a HPLC-UV or LC-MS method following solid phase extraction.
Data set [7] has as its system partial epilepsy refractory patients. Conditions: cited from earlier work.
[8] abbreviates: plasma, after 350 mg/kg R-licarbazepine oral, CD-1 mice.
The mark [9] stands for this setting: brain, after 350 mg/kg R-licarbazepine oral, CD-1 mice.
Where [10] appears, read: 100 mg/kg twice daily, twelve days.
[11] abbreviates: eslicarbazepine acetate 100 mg/kg, i.p., FIG. 3.

Molecules are shown by their SMILES. “Also recorded” adds a separate entry of the source.

Description for P-glycoprotein (P-gp): as §2

As for `NCC1(CC(=O)O)CCCCC1` [Gabapentin], the “licking time versus vehicle controls” value in the data set on NMRI mice [1] was “significantly (p<0.05) decreased”.

With `CC[C@@H](C(N)=O)N1CCCC1=O` [Levetiracetam], the “substrate for either P-gp or MRP1/2” value in the data set on P-gp or MRP (verapamil and probenecid did not increase brain penetration) is “not to be a substrate”. Also, the patients seizure-free in data set [2] is given as 32%.

As to `NC(=O)N1c2ccccc2C[C@@H](O)c2ccccc21` [R-licarbazepine], the “absorption after oral administration” value in data set [3] (oral, CD-1 mice) was “rapidly absorbed”. Also, in [3] (setting [8]), the “AUC0-∞” value worked out at 231.716 µg·h/mL; the AUC(0-t) came to 203.705 µg·h/mL; the Cmax – broadly, the highest concentration seen after dosing – stood at 69946 ng/mL; the MRT (usually a mean duration of stay, worked out from the concentration-time curve) stood at 10.12 h. For the same molecule, in data set [3] (setting [8]), the tmax worked out at 0.25 h and the t½ (as a rule, the time in which the quantity being followed falls by half) came to 8.11 h. Also, the “elimination half-life (t1/2)” value in data set [3] (plasma, approximate value stated for both enantiomers) is given as “≈ 8 h”. Besides, at P-glycoprotein (P-gp), the “substrate for P-gp” value is recorded as “is a substrate” and the “effect of verapamil on brain/plasma ratio” value is “markedly increased; also recorded: equals that of S-licarbazepine in vehicle-treated animals”. Also, the “presence of the opposite enantiomer in brain” value in [4] is reported as “almost negligible”. In data set [4] (setting [9]), the “AUC0-∞” value amounted to 60.037 µg·h/mL, the AUC(0-t) was 51.516 µg·h/mL, the Cmax is given as 8533 ng/mL and the MRT came to 11.34 h. For the same molecule, in [4] (setting [9]), the tmax amounted to 0.75 h and the t½ is recorded as 7.91 h. Besides, in the data set on NMRI mice [5] (100 mg/kg twice daily intraperitoneally, twelve days), the “effect on acquisition of kindling” value is recorded as “no inhibitory effect”. Moreover, the “adverse effects during the course of the experiment” value in the data set on NMRI mice [5] (setting [10]) was “no adverse effects were obvious”. Further, the “mean seizure severity versus vehicle control group” value with NMRI mice [5] (100 mg/kg twice daily, S-lic: all sessions of first three days, R-lic: all sessions except afternoon of day 8) is reported as “no significant differences”. Besides, the “number of stimulations necessary to induce a seizure with a given severity score” value with NMRI mice [5] (100 mg/kg twice daily, score 3 and 4 (S-lic), score 3, 4, 5 and 6 (R-lic), versus control) was “did not differ”. Also, in the data set with NMRI mice [5] (at termination of treatment, day 12), the “animals that had reached the kindling criterion (at least one generalized seizure, score 4-6)” value was “all of the treated animals”. The “substrate for MRP” value in [6] is listed as “not for MRP”. For the same molecule, in the data set with NMRI mice [1], the “licking time versus vehicle controls” value was “did not attain statistical significance”.

Consider `NC(=O)N1c2ccccc2C[C@H](O)c2ccccc21` [S-licarbazepine, (S)-(+)-10,11-dihydro-10-hydroxy-5H dibenz/b,f/azepine-5-carboxamide], for which the MRT in [3] (CD-1, mouse, oral, 350 mg/kg, plasma, approximate range stated for both enantiomers, read-out: mean residence time (MRT)) is 10 to 12 h; in [3] (mouse, plasma, after 350 mg/kg S-licarbazepine oral, CD-1 mice, read-out: MRT) it was 11.7 h; in [4] (mouse, brain, after 350 mg/kg S-licarbazepine oral, CD-1 mice, read-out: MRT), 7.84 h. The half-life in [3] (CD-1, mouse, oral, 350 mg/kg, plasma, approximate value stated for both enantiomers, read-out: elimination half-life (t1/2) (converted)) was around 8 h; in data set [3] (mouse, plasma, after 350 mg/kg S-licarbazepine oral, CD-1 mice, read-out: t½ (converted)), 7.93 h; in [4] (mouse, brain, after 350 mg/kg S-licarbazepine oral, CD-1 mice, read-out: t½ (converted)) it was 4.87 h. For the same molecule, the AUC(0-t) in [3] (CD-1, mouse, plasma, po, 350 mg/kg, plasma, after 350 mg/kg R-licarbazepine oral, CD-1 mice, read-out: AUC0-t) was 4.58 µg·h/mL; in [3] (CD-1, mouse, plasma, po, 350 mg/kg, plasma, after 350 mg/kg S-licarbazepine oral, CD-1 mice, read-out: AUC0-t) it was 187 µg·h/mL; in [4] (mouse, brain, after 350 mg/kg S-licarbazepine oral, CD-1 mice, read-out: AUC0-t), 109 µg·h/mL. Further, the Cmax was 1020 ng/mL in [3] (CD-1, mouse, plasma, po, 350 mg/kg, plasma, after 350 mg/kg R-licarbazepine oral, CD-1 mice, read-out: Cmax); 41300 ng/mL in data set [3] (CD-1, mouse, plasma, po, 350 mg/kg, plasma, after 350 mg/kg S-licarbazepine oral, CD-1 mice, read-out: Cmax); 12300 ng/mL in data set [4] (mouse, brain, after 350 mg/kg S-licarbazepine oral, CD-1 mice, read-out: Cmax). Besides, in data set [3] (S-licarbazepine in plasma after administration of R-licarbazepine), the “amount detectable in plasma” value is listed as “small amounts”. Also, the area under the curve AUC(0-inf) (commonly total exposure, with the tail of the curve extrapolated) in [3] (mouse, plasma, after 350 mg/kg S-licarbazepine oral, CD-1 mice) amounted to 258 µg·h/mL; in data set [4] (mouse, brain, after 350 mg/kg S-licarbazepine oral, CD-1 mice), 111 µg·h/mL. Moreover, the tmax came to 0.25 h in data set [3] (mouse, plasma, after 350 mg/kg S-licarbazepine oral, CD-1 mice, read-out: tmax) and 1 h in data set [4] (mouse, brain, after 350 mg/kg S-licarbazepine oral, CD-1 mice, read-out: tmax). Also, the “absorption after oral administration” value in data set [3] (oral, CD-1 mice) is on record as “rapidly absorbed”. Besides, the “substrate for P-gp” value at P-glycoprotein (P-gp) is given as “not a substrate”. The “effect of verapamil on brain/plasma ratio” value on P-glycoprotein (P-gp) is “failed to affect”. For the same molecule, in data set [4] (FIG. 1, compared with R-licarbazepine), the “brain/plasma ratio (considering either Cmax or AUC)” value was “considerably greater”. Moreover, the “presence of the opposite enantiomer in brain” value in [4] is given as “almost negligible”. Also, the “AUCbrain(S-Licarbazepine)/AUCbrain(R-Licarbazepine)” value in data set [4] (brain exposure ratio, each enantiomer given orally 350 mg/kg) is reported as 1.9. The “adverse effects during the course of the experiment” value with NMRI mice [5] (setting [10]) was “no adverse effects were obvious”. For the same molecule, the “substrate for MRP” value in data set [6] was “not a substrate”. Moreover, the “effect of probenecid on brain/plasma ratio” value in [6] (probenecid 100 mg/kg 30 min before 100 mg/kg intraperitoneally, FIG. 2) was “failed to affect”.

`NC(=O)N1c2ccccc2C=Cc2ccccc21` [carbamazepine]: the “category of P-gp or MRP substrates” value in the data set with P-gp or MRP was “P-gp or MRP substrates”.

For `CC(=O)O[C@H]1Cc2ccccc2N(C(N)=O)c2ccccc21` [eslicarbazepine acetate, (S)-(−)-10-acetoxy-10,11-dihydro-5H-dibenz/b,f/azepine-5-carboxamide], in [7] (1 month after initiation of therapy), the “patients that became seizure free” value is listed as “approximately 25%”. In addition, in [7] (administered once-daily), the “efficacy in partial epilepsy refractory patients” value is reported as “very efficacious”. In addition, on P-glycoprotein (P-gp) (setting [11]), the “effect of verapamil on S-licarbazepine brain/plasma ratio after eslicarbazepine acetate” value was “failed to affect”. Also, the “effect of probenecid on S-licarbazepine brain/plasma ratio after eslicarbazepine acetate” value in data set [6] (setting [11]) was “failed to affect”.

On to `NC(=O)OCC(COC(N)=O)c1ccccc1` [felbamate], for which the “category of P-gp or MRP substrates” value in the data set on P-gp or MRP is given as “P-gp or MRP substrates”.

Turning to `NC(=O)N1c2ccccc2CC(=O)c2ccccc21` [oxcarbazepine], the “category of P-gp or MRP substrates” value in the data set with P-gp or MRP is recorded as “P-gp or MRP substrates”.

Turning to `CCC1(c2ccccc2)C(=O)NC(=O)NC1=O` [phenobarbital], the “category of P-gp or MRP substrates” value with P-gp or MRP is on record as “P-gp or MRP substrates”.

As to `O=C1NC(=O)C(c2ccccc2)(c2ccccc2)N1` [phenytoin], the “category of P-gp or MRP substrates” value in the data set with P-gp or MRP was “P-gp or MRP substrates”.

The record behind these values is US9763954B2, “Therapeutical uses of eslicarbazepine” (BIAL-PORTELA & CA, S.A., priority 2007, dated 2017).
